Source: patent publication US20220323468A1, “REDUCED NICOTINAMIDERIBOSIDES FOR THE TREATMENT/PREVENTION OF LIVER DISEASE” (SOCIETE DES PRODUITS NESTLE S.A., priority 2019, published 2022)
“Also recorded” adds a separate entry of the source. Counter-ions that a name gives are not always drawn. Like-named read-outs stand apart in the source and are kept apart here.

Key:
adenosine kinase (AK) = target: T1, adenosine kinase (AK) (Mus musculus, UniProt P55264); test: NRH-induced NAD+ synthesis with adenosine kinase inhibitors; assay type: cell-based; set-up: effect of AK inhibitor on NRH action (NAD+ synthesis): dose or concentration left out as unconfirmed; conditions: for effect of AK inhibitor on NRH action (NAD+ synthesis): AML12 cells, inhibitor (5-IT) 1 hour prior to NRH, NAD+ measured 1 hour later
T1 construct: endogenous in cells; host or cells: AML12 cells
T1 sequence (P55264 whole entry): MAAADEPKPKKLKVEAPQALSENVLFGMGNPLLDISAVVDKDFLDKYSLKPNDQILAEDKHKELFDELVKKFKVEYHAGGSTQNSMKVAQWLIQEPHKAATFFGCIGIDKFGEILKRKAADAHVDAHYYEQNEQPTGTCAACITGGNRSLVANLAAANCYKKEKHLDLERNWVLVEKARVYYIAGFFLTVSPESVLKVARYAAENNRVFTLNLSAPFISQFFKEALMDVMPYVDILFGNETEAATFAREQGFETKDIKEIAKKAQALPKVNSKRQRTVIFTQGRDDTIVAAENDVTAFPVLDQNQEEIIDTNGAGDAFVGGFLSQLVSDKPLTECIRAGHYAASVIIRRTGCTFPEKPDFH
Procedure: AML12 cells were treated with an adenosine kinase inhibitor (5-IT; […]) for 1 hour prior to NRH treatment at the doses indicated. Then, 1 hour later, acidic extracts were obtained to measure NAD^+ levels.

[1] = Intrahepatic and hepatic mitochondrial NAD+ after IP injection in mice; assay type: in vivo; conditions: NR 500 mg/kg or equimolar amounts, 1 hour later; for hepatic mitochondrial NAD+ levels: isolated liver mitochondria
Procedure: 10 week old male mice were fasted for 2 hours prior to intraperitoneal injection (IP) with saline as control/vehicle, nicotinamide riboside (NR; 500 mg/kg) or equimolar amounts of dihydronicotinamide riboside (NRH) or nicotinamide (NAM). Then, 1 hour later, mice were euthanized and a piece of liver was snap frozen while another piece was used for mitochondrial isolation following a published procedure (Frezza et al., 2007; Nature Protocols). The piece of snap frozen liver was weighted and submitted to acidic extraction to evaluate NAD+ levels through enzymatic methods. For isolated mitochondria, protein was quantified and 200 micrograms of protein were used for acidic extraction and NAD+ measurement through enzymatic methods. […] All results are mean+/− SEM of n=4 animals per group. * indicates statistical difference at p<0.05 vs. control/vehicle group.

[2] = Stability in FBS supplemented media
From the text: (§1) NR degradation to NAM has been proposed as a limitation for its pharmacological efficacy. To evaluate whether NRH was also susceptible to degradation to NAM, we spiked NRH or NR in isolated mouse plasma. […] We also tested the stability of NRH in other matrixes.

[3] = Plasma NRH, NR and NAM after oral administration in mice; assay type: in vivo
Procedure: (§2) 8 week-old C57BI/6NTac mice were orally gavaged with either saline (as vehicle), NR (500 mg/kg) or NRH (500 mg/kg). After 1 hour, liver, skeletal muscle and kidney NAD^+ levels were evaluated. All results are expressed as mean+/− SEM of n=5 mice per group. * indicates statistical difference at p<0.05 vs. vs. saline-treated mice. # indicates statistical difference at p<0.05 vs. NR treated mice.
(§3) Levels of NRH and other NAD-related metabolites in biological samples were obtained by using a cold liquid-liquid extraction using a mixture of methanol:water:chloroform in 5:3:5 (v/v), from which the polar phase was recovered for hydrophilic interaction ultra-high performance liquid chromatography mass spectrometry (UHPLC-MS) analysis. The UHPLC consisted of a binary pump, a cooled autosampler, and a column oven (DIONEX Ultimate 3000 UHPLC+ Focused, Thermo Scientific), connected to a triple quadrupole spectrometer (TSQ Vantage, Thermo Scientific) equipped with a heated electrospray ionisation (H-ESI) source. Of each sample, 2 μL were injected into the analytical column (2.1 mm×150 mm, 5 μm pore size, 200 Å HILICON iHILIC®-Fusion(P)), guarded by a pre-column (2.1 mm×20 mm, 200 Å HILICON iHILIC®-Fusion(P) Guard Kit) operating at 35° C. The mobile phase (10 mM ammonium acetate at pH 9, A, and acetonitrile, B) was pumped at 0.25 mL/min flow rate over a linear gradient of decreasing organic solvent (0.5-16 min, 90-25% B), followed by re-equilibration for a total run time of 30 min. The MS operated in positive mode at 3500 V with multiple reaction monitoring (MRM). The software Xcalibur v4.1.31.9 (Thermo Scientific) was used for instrument control, data acquisition and processing. Retention time and mass detection was confirmed by authentic standards.
(§4) Oral administration of NRH led to very similar results to those observed after IP administration. […] NRH was detectable in plasma 1 h after oral administration. In contrast, NR levels were undetectable at 1 h after NR administration.

[4] = tested on: primary hepatocytes from NRK1 knockout (NRK1KO) mice; test: NAD+ levels in primary hepatocytes from control or NRK1 knockout mice; assay type: cell-based; conditions: after 1 hour of treatment
From the text: (§5) The action of NRH was also NAMPT-independent, based on experiments using FK866, a NAMPT inhibitor. If NRH led to NAD+ synthesis via the formation of NMNH, this hypothetical path would require the phosphorylation of NRH into NMNH. Given the essential and rate-limiting role of NRK1 in NR phosphorylation, we wondered whether the ability of NRH to boost NAD+ levels was NRK1 dependent. To answer this question, we evaluated NRH action in primary hepatocytes from either control or NRK1 knockout (NRK1KO) mice. […] Further, they rule out the possibility that NRH-induced NAD+ […] is driven by NRH oxidation into NR.

[5] = Tissue NAD+ levels after IP injection in mice; assay type: in vivo; conditions: IP 500 mg/kg, after 1 h
Procedure: (§6) The above results prompted us to test whether NRH could act as an effective NAD+ precursor in vivo. For this, we first intraperitoneally (IP) injected mice with either NR or NRH (500 mg/kg).

[6] = Stability in isolated mouse plasma; assay type: in vitro ADME; conditions: for compound levels in plasma / generation of NAM in plasma: spiked in isolated mouse plasma, 2 h of incubation
From the text: as §1

[7] = Circulating NAM, NRH and NR after IP injection in mice; assay type: in vivo; conditions: for NAM levels in circulation: mice, IP 500 mg/kg
From the text: as §3, §6

Stability in water = assay type: physicochemical; conditions: pH=7, at room temperature, 48 h
From the text: as §1

AML12 hepatocytes = test: Intracellular NAD+ levels in AML12 hepatocytes (dose-response and time course); assay type: cell-based
Procedure: Even at such relatively low dose, NRH achieved similar increases in intracellular NAD+ levels to those reached with NR at 50-fold higher concentrations. NRH achieved maximal effects on NAD+ synthesis around the millimolar range, managing to increase intracellular NAD+ levels by more than 10-fold.
NRH actions were also extremely fast (FIG. 3), as significant increases in NAD+ levels were observed within 5 minutes after NRH treatment.

C2C12 myotubes = test: NAD+ levels in C2C12 myotubes after NRH treatment; assay type: cell-based
[8] = set-up: species or system mice; conditions: mouse, in vivo, 250 mg/kg
Procedure: 8 week-old C57Bl/6NTac mice were orally gavaged with either saline (as vehicle), and NRH (250 mg/kg). After 2 hours, liver, skeletal muscle and kidney NRH levels were evaluated. All results are expressed as mean+/− SEM of n=4 mice per group, as areas under the signal by LC-MS analysis, corrected by total protein amount of tissue.
as §3

3T3 fibroblasts = test: NAD+ levels in 3T3 fibroblasts after NRH treatment; assay type: cell-based
[9] = tested on: intracellular NRH, NMNH, NR and NMN; test: Intracellular NAD+ related metabolites after treatment (UHPLC-MS); assay type: cell-based
From the text: as §3, with “standards. […]” for “standards.”

[10] = tested on: equilibrative nucleoside transporters (ENTs); test: NRH-induced NAD+ synthesis under ENT blockage; assay type: cell-based; conditions: in the presence of S-(4-nitrobenzyl)-6-thioinosine (NBTI)
From the text: In order to understand the exact path by which NRH synthesizes NAD+, we initially evaluated whether NRH, could be transported into the cell by equilibrative nucleoside transporters (ENTs).

[11] = Hepatic NAD+ levels after oral administration in mice; assay type: in vivo; conditions: compared with NR
Procedure: as §2, §4

INS1-cells = test: NAD+ levels in INS1-cells after NRH treatment; assay type: cell-based
NAMPT = target: T2, NAMPT (Mus musculus, UniProt Q99KQ4); test: NRH-induced NAD+ synthesis with NAMPT inhibitor FK866; assay type: cell-based; conditions: experiments using FK866, a NAMPT inhibitor
T2 construct: endogenous in cells
T2 sequence (Q99KQ4 whole entry): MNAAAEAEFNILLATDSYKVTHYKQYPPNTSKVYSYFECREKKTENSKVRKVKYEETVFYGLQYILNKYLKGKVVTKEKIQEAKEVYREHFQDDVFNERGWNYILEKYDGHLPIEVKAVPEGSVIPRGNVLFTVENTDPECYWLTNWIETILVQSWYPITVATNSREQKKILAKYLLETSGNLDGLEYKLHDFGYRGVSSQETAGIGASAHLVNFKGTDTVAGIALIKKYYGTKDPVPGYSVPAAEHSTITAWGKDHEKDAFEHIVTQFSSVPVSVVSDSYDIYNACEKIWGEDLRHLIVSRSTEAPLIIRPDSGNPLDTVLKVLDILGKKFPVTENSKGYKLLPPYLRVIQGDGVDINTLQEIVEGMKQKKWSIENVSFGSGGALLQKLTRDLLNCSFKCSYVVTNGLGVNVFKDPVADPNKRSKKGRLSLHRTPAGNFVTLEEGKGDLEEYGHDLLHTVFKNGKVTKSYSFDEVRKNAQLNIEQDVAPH
From the text: as §5

NMNAT = test: NRH-induced NAD+ synthesis with NMNAT inhibitor gallotannin; assay type: cell-based
From the text: As a follow-up step, NMNAT enzymes could catalyze the transition from NMNH to NADH.

## Nc1ncnc2c1c(I)cn2[C@@H]1O[C@H](CO)[C@@H](O)[C@H]1O [5-IT, 5-iodotubercidin]
Adenosine kinase (AK)
  effect of AK inhibitor on NRH action (NAD+ synthesis): fully ablated the action of NRH
Adenosine kinase (AK); with 5-IT treatment
  formation of NR and NMN after NRH treatment: prevented the formation of NR and NMN

## Nc1ncnc2nc(-c3ccc(N4CCOCC4)nc3)cc(-c3cccc(Br)c3)c12 [ABT-702]
Adenosine kinase (AK)
  effect of AK inhibitor on NRH action (NAD+ synthesis): confirmed

## NC(=O)c1cccnc1 [NAM, nicotinamide]
[1]
  intrahepatic NAD+: increase intrahepatic NAD+
  hepatic mitochondrial NAD+ levels: only NRH increases mitochondrial NAD+ levels

## NC(=O)c1ccc[n+]([C@@H]2O[C@H](CO)[C@H](O)C2O)c1 (stereo partly drawn) [NR, 1-b-D-ribofuranosyl-3-pyridinecarboxamide salt, reference compound]
[2]; FBS supplemented media
  degradation to NAM: as occurs with NR
[3]; C57BI/6NTac, mouse, in vivo, po, 1 h
  circulating NAM relative to that after NRH treatment: ~4 fold
[3]; mouse, in vivo, po
  administered compound in plasma: undetectable
  circulating NAM: large increases
[4]
  NAD+ levels in NRK1KO derived primary hepatocytes: failed to increase NAD+ levels
[1]
  intrahepatic NAD+: increase intrahepatic NAD+
  hepatic mitochondrial NAD+ levels: only NRH increases mitochondrial NAD+ levels
[5]
  NAD+ levels in kidney: increased NAD+ levels
  NAD+ levels in liver: increased NAD+ levels
  NAD+ levels in muscle: increased NAD+ levels
[6]
  compound levels in plasma: decayed
  generation of NAM in plasma: increase in NAM
[7]
  NAM levels in circulation: highly increased

## NC(=O)C1=CN([C@@H]2O[C@H](CO)[C@@H](O)[C@H]2O)C=CC1 [NRH]
[2]
  degradation to NAM: did not degrade to NAM
[3]; mice, after oral gavage
  NRH concentration in plasma: 11.16 ± 1.74 µM
[3]; mouse, in vivo, po
  administered compound in plasma: detectable
Stability in water
  stability in water: certified NRH stability
AML12 hepatocytes; AML12 hepatocytes, FIG. 3
  time to significant increase in NAD+ levels after treatment: ≤ 5 min
AML12 hepatocytes; AML12 hepatocytes, compared with NR
  ability to increase intracellular NAD+: superior to that of NR
AML12 hepatocytes; AML12 hepatocytes, dose-response, FIG. 2
  concentration at which NAD+ levels are significantly increased: 10 µM
AML12 hepatocytes; NRH at 10 μM versus NR
  fold higher NR concentration needed to reach similar increases in intracellular NAD+: 50 fold
AML12 hepatocytes; around the millimolar range
  maximal increase of intracellular NAD+ levels: more than 10 fold
[4]
  NAD+ levels in NRK1KO derived primary hepatocytes: not affected by NRK1 deficiency
[1]
  intrahepatic NAD+: increase intrahepatic NAD+
  hepatic mitochondrial NAD+ levels: only NRH increases mitochondrial NAD+ levels
C2C12 myotubes
  NAD+ levels: highly elevated
[8]
  NRH in kidney: found intact, in high levels
  NRH in liver: found intact, in high levels
  NRH in muscle: found intact, in high levels
[5]
  NAD+ levels in kidney: increased NAD+ levels
  NAD+ levels in liver: increased NAD+ levels
  NAD+ levels in muscle: increased NAD+ levels
3T3 fibroblasts
  NAD+ levels: highly elevated
[9]; 5 minutes after treatment
  intracellular detection of NRH and NMNH: could be detected intracellularly
[9]; after treatment, compared with NR
  intracellular NR and NMN: increase in intracellular NR and NMN, greater than that triggered by NR itself
Adenosine kinase (AK); metabolomic analyses, upon inhibition of AK
  generation of NMNH, NADH and NAD+ from NRH: fully blunted
[6]; incubation in isolated plasma
  NR production in plasma: did not lead to NR production
[6]
  compound levels in plasma: remained stable
  generation of NAM in plasma: NAM was not generated; also recorded: did not significantly alter NAM levels
[10]
  capacity as extracellular NAD+ precursor under ENT blockage: largely lost its capacity as an extracellular NAD+ precursor
[7]
  NAM levels in circulation: only a very mild increase
[7]; mouse, in vivo, ip
  NR in circulation: much higher levels than those detected after NR injection itself
  NRH in circulation: detectable in circulation
[11]
  effect on hepatic NAD+ levels: more potent effect on hepatic NAD+ levels than NR
INS1-cells
  NAD+ levels: highly elevated
NAMPT
  dependence of NAD+ increasing action on NAMPT: NAMPT-independent

## O=C(OC[C@H]1O[C@@H](OC(=O)c2cc(O)c(O)c(OC(=O)c3cc(O)c(O)c(O)c3)c2)[C@H](OC(=O)c2cc(O)c(O)c(OC(=O)c3cc(O)c(O)c(O)c3)c2)[C@@H](OC(=O)c2cc(O)c(O)c(OC(=O)c3cc(O)c(O)c(O)c3)c2)[C@@H]1OC(=O)c1cc(O)c(O)c(OC(=O)c2cc(O)c(O)c(O)c2)c1)c1cc(O)c(O)c(OC(=O)c2cc(O)c(O)c(O)c2)c1 [gallotannin]
NMNAT
  effect of NMNAT inhibitor on NAD+ synthesis after NRH treatment: largely compromised NAD+ synthesis
NMNAT; NRH at maximal doses (0.5 mM)
  effect of NMNAT inhibitor on NRH action: part of the NRH action remained
NMNAT; NRH at submaximal doses
  effect of NMNAT inhibitor on NRH action: totally blocked
